Counter-ions that a name gives are not always drawn. Like-named read-outs stand apart in the source and are kept apart here.
Tests used:
[1] = molecular target: human recombinant D2 receptor (Homo sapiens (Human), UniProt P14416); experiment: D2 receptor antagonism activity test (inhibition of dopamine-induced decrease of cAMP production, LANCE cAMP 384 Kit); conditions: read-out: D2 receptor antagonism (IC50, mol/L), HEK293 cells expressing human recombinant D2 receptor, 0.1 nM-10000 nM
[2] = molecular target: human recombinant 5-HT2A receptor (Homo sapiens (Human), UniProt P28223); experiment: 5-HT2A receptor antagonism activity test (FLIPR Calcium 5 Assay Kit); conditions: read-out: 5-HT2A receptor antagonism (IC50, mol/L)
[3] = molecular target: human recombinant 5-HT1A receptor (Homo sapiens (Human), UniProt P08908); experiment: 5-HT1A receptor agonism activity test (inhibition of cAMP production, LANCE cAMP 384 Kit); assay type: cell-based; conditions: HEK293 cells expressing human recombinant 5-HT1A receptor; test concentration 0.1 nM-10000 nM; read-out: 5-HT1A receptor agonism (EC50, mol/L)
Text: Pharmacological Test 1) 5-HT1A Receptor Agonism Activity Test

[4] = CHO-K1 cells expressing human recombinant 5-HT2A receptor, α-methyl-5-hydroxytryptamine 300 nM, 0.1 nM-10000 nM

Sequence of human recombinant 5-HT2A receptor (P28223 whole entry): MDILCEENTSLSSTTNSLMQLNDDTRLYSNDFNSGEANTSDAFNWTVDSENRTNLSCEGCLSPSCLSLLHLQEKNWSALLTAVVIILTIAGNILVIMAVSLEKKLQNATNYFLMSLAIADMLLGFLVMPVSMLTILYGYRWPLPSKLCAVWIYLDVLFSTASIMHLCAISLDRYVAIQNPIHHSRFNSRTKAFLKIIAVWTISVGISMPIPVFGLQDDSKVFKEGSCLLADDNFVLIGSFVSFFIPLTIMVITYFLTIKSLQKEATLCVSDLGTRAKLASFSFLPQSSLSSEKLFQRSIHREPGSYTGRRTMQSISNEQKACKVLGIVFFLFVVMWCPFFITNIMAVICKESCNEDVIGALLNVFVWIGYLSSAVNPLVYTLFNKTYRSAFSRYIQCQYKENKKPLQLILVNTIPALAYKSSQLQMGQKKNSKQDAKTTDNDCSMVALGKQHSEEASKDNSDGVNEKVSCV
Sequence of human recombinant 5-HT1A receptor (P08908 whole entry): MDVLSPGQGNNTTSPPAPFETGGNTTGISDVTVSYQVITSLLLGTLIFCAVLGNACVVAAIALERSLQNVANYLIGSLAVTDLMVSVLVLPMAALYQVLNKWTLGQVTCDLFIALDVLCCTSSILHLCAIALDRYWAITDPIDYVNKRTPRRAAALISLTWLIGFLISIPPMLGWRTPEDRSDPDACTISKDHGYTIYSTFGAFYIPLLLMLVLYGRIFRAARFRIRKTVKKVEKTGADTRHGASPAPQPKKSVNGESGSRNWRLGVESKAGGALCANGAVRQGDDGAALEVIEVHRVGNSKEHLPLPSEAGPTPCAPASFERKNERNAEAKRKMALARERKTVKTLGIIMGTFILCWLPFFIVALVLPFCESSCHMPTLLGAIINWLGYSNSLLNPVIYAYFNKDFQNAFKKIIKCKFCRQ
Sequence of human recombinant D2 receptor (P14416 whole entry): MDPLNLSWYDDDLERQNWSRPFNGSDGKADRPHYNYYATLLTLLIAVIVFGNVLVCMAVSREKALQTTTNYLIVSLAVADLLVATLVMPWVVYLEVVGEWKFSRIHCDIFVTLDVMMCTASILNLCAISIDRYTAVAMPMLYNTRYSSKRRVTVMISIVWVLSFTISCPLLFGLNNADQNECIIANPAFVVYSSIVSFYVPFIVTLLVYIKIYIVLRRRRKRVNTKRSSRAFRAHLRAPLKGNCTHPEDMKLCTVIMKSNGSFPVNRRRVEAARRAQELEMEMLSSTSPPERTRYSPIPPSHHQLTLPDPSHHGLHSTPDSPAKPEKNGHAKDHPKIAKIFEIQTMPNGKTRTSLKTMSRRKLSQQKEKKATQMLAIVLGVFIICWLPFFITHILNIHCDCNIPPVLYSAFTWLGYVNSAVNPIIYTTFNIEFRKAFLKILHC

O=C1Cc2cc(CCN3CCN(c4cccc5c4CCS5)CC3)c(Cl)cc2N1 [Compound of example 1, 6-chloro-5-(2-(4-(2,3-dihydrobenzo[b]thiophen-4-yl)piperazin-1-yl)ethyl)indolin-2-one]
IC50 [1]: 56.9 nM
IC50 [2, 4]: 227 nM
EC50 [3]: 3.31 nM

O=c1ccc2ccc(CCN3CCN(c4cccc5sccc45)CC3)cc2[nH]1 [Compound of example 9, 7-(2-(4-(benzo[b]thiophen-4-yl)piperazin-1-yl)ethyl)quinolin-2(1H)-one]
IC50 [1]: 7.06 nM
IC50 [2]: 95.6 nM
EC50 [3]: 0.972 nM

O=c1ccc2ccc(CCCCCN3CCN(c4cccc5sccc45)CC3)cc2[nH]1 [Compound of example 11, 7-(5-(4-(benzo[b]thiophen-4-yl)piperazin-1-yl)pentyl)quinolin-2(1H)-one]
IC50 [2, 4]: 209 nM
EC50 [3]: 1.95 nM

Cc1nc2c(OCc3ccccc3)cccn2c(=O)c1CCN1CCN(c2cccc3sccc23)CC1 [Compound of example 17, 3-(2-(4-(benzo[b]thiophen-4-yl)piperazin-1-yl)ethyl)-9-(benzyloxy)-2-methyl-4H-pyrido[1,2-a]pyrimidin-4-one hydrochloride]
IC50 [2, 4]: 350 nM

O=C1CCc2cc(Cl)c(CCN3CCN(c4cccc5sccc45)CC3)cc2N1 [Compound of example 23, 7-(2-(4-(benzo[b]thiophen-4-yl)piperazin-1-yl)ethyl)-6-chloro-3,4-dihydroquinolin-2(1H)-one]
IC50 [1]: 81.2 nM
IC50 [2, 4]: 97.6 nM
EC50 [3]: 463 nM

Cc1nc2ccc(CCCCCN3CCN(c4cccc5sccc45)CC3)cc2c(=O)[nH]1 [Compound of example 24, 6-(5-(4-(benzo[b]thiophen-4-yl)piperazin-1-yl)pentyl)-2-methylquinazolin-4(3H)-one]
IC50 [1]: 50.7 nM
IC50 [2, 4]: 781 nM
EC50 [3]: 25.9 nM

O=c1ccc2ccc(CCN3CCN(c4cccc5c4CCS5)CC3)cc2[nH]1 [Compound of example 25, 7-(2-(4-(2,3-dihydrobenzo[b]thiophen-4-yl)piperazin-1-yl)ethyl)quinolin-2(1H)-one]
IC50 [1]: 85.1 nM
IC50 [2]: 77.9 nM
EC50 [3]: 0.824 nM

O=c1[nH]cnc2ccc(CCCCCN3CCN(c4cccc5sccc45)CC3)cc12 [Compound of example 34, 6-(5-(4-(benzo[b]thiophen-4-yl)piperazin-1-yl)pentyl)quinazolin-4(3H)-one hydrochloride]
IC50 [1]: 324 nM
EC50 [3]: 54 nM

O=c1[nH]c(CCN2CCN(c3cccc4sccc34)CC2)nc2ccccc12 [Compound of example 35, 2-(2-(4-(benzo[b]thiophen-4-yl)piperazin-1-yl)ethyl)quinazolin-4(3H)-one]
IC50 [1]: 216 nM
IC50 [2, 4]: 21.5 nM
EC50 [3]: 41.9 nM

O=C1Cc2cc(CCN3CCC(c4cccc5sccc45)CC3)c(Cl)cc2N1 [Compound of example 37, 5-(2-(4-(benzo[b]thiophen-4-yl)piperidin-1-yl)ethyl)-6-chloroindolin-2-one]
IC50 [1]: 51.9 nM
IC50 [2, 4]: 28.1 nM
EC50 [3]: 3.11 nM

O=C1Cc2cc(CCN3CCN(c4cncc5sccc45)CC3)c(Cl)cc2N1 [Compound of example 42, 6-chloro-5-(2-(4-(thieno[2,3-c]pyridin-4-yl)piperazin-1-yl)ethyl)indolin-2-one]
IC50 [1]: 270 nM
IC50 [2, 4]: 115 nM
EC50 [3]: 100 nM

O=c1ccc2ccc(CCN3CCN(c4cncc5sccc45)CC3)cc2[nH]1 [Compound of example 43, 7-(2-(4-(thieno[2,3-c]pyridin-4-yl)piperazin-1-yl)ethyl)quinolin-2(1H)-one]
IC50 [1]: 241 nM
IC50 [2, 4]: 286 nM
EC50 [3]: 1.23 nM

c1ccc2[nH]c(CN3CCN(c4cccc5sccc45)CC3)nc2c1 [Compound of example 58, 2-((4-(benzo[b]thiophen-4-yl)piperazin-1-yl)methyl)-1H-benzo[d]imidazole]
IC50 [1]: 101 nM
IC50 [2, 4]: 2170 nM
EC50 [3]: 4.55 nM

O=C1COc2cc(F)c(CCN3CCN(c4cccc5sccc45)CC3)cc2N1 [Compound of example 66, 6-(2-(4-(benzo[b]thiophen-4-yl)piperazin-1-yl)ethyl)-7-fluoro-2H-benzo[b][1,4]oxazin-3(4H)-one]
IC50 [1]: 61.7 nM
IC50 [2, 4]: 81.5 nM
EC50 [3]: 1.29 nM

N#Cc1ccc2[nH]cc(CCCCN3CCN(c4cccc5sccc45)CC3)c2c1 [Compound of example 70, 3-(4-(4-(benzo[b]thiophen-4-yl)piperazin-1-yl)butyl)-1H-indole-5-carbonitrile]
IC50 [1]: 79.7 nM
IC50 [2, 4]: 332 nM
EC50 [3]: 9.7 nM

O=C1Cc2cc(CCN3CCN(c4cc(F)cc5sccc45)CC3)ccc2N1 [Compound of example 84, 5-(2-(4-(6-fluorobenzo[b]thiophen-4-yl)piperazin-1-yl)ethyl)indolin-2-one]
IC50 [1]: 10.9 nM
IC50 [2, 4]: 17.5 nM
EC50 [3]: 0.235 nM

Cn1c(=O)[nH]c2ccc(CCN3CCN(c4cccc5sccc45)CC3)cc21 [Compound of example 86, 6-(2-(4-(benzo[b]thiophen-4-yl)piperazin-1-yl)ethyl)-1-methyl-1H-benzo[d]imidazol-2(3H)-one]
IC50 [1]: 23.5 nM
IC50 [2, 4]: 93.3 nM
EC50 [3]: 21.6 nM

Cc1nc2n(c(=O)c1CCN1CCN(c3cc(F)cc4sccc34)CC1)CCCC2 [Compound of example 90, 3-(2-(4-(6-fluorobenzo[b]thiophen-4-yl)piperazin-1-yl)ethyl)-2-methyl-6,7,8,9-tetrahydro-4H-pyrido[1,2-a]pyrimidin-4-one]
IC50 [1]: 10.4 nM
IC50 [2, 4]: 13.6 nM
EC50 [3]: 27.7 nM

O=C1COc2ccc(CCN3CCC(c4cccc5sccc45)CC3)cc2N1 [Compound of example 97, 6-(2-(4-(benzo[b]thiophen-4-yl)piperidin-1-yl)ethyl)-2H-benzo[b][1,4]oxazin-3(4H)-one]
IC50 [1]: 6.81 nM
IC50 [2, 4]: 173 nM
EC50 [3]: 0.223 nM

O=C1CCc2cc(CCN3CCC(c4cccc5sccc45)CC3)ccc2N1 [Compound of example 98, 6-(2-(4-(benzo[b]thiophen-4-yl)piperidin-1-yl)ethyl)-3,4-dihydroquinolin-2(1H)-one]
IC50 [1]: 12.4 nM
IC50 [2, 4]: 185 nM
EC50 [3]: 2.9 nM

O=C1Cc2cc(CCCCN3CCN(c4cccc5sc(F)cc45)CC3)ccc2N1 [Compound of example 101, 5-(4-(4-(2-fluorobenzo[b]thiophen-4-yl)piperazin-1-yl)butyl)indolin-2-one]
IC50 [1]: 1.84 nM
IC50 [2, 4]: 759 nM
EC50 [3]: 16.8 nM

O=C1CCc2cc(CCCCN3CCC(c4cccc5sccc45)CC3)ccc2N1 [Compound of example 104, 6-(4-(4-(benzo[b]thiophen-4-yl)piperidin-1-yl)butyl)-3,4-dihydroquinolin-2(1H)-one]
IC50 [1]: 98.8 nM
IC50 [2, 4]: 106 nM
EC50 [3]: 12.3 nM

COc1ccc2[nH]cc(CCN3CCN(c4cccc5sccc45)CC3)c2c1 [Compound of example 105, 3-(2-(4-(benzo[b]thiophen-4-yl)piperazin-1-yl)ethyl)-5-methoxy-1H-indole]
IC50 [2]: 25.5 nM

COc1ccc2[nH]cc(CCCN3CCN(c4cccc5sccc45)CC3)c2c1 [Compound of example 106, 3-(3-(4-(benzo[b]thiophen-4-yl)piperazin-1-yl)propyl)-5-methoxy-1H-indole]
IC50 [1]: 543 nM
IC50 [2, 4]: 662 nM
EC50 [3]: 10.4 nM

COc1ccc2[nH]cc(CCCCN3CCN(c4cccc5sccc45)CC3)c2c1 [Compound of example 107, 3-(4-(4-(benzo[b]thiophen-4-yl)piperazin-1-yl)butyl)-5-methoxy-1H-indole]
IC50 [1]: 8.43 nM
IC50 [2, 4]: 393 nM
EC50 [3]: 7.95 nM

N#Cc1ccc2[nH]cc(CCCN3CCN(c4cccc5sccc45)CC3)c2c1 [Compound of example 108, 3-(3-(4-(benzo[b]thiophen-4-yl)piperazin-1-yl)propyl)-1H-indole-5-carbonitrile]
IC50 [1]: 21.7 nM
IC50 [2, 4]: 819 nM
EC50 [3]: 44.9 nM

N#Cc1ccc2[nH]cc(CCN3CCN(c4cccc5sccc45)CC3)c2c1 [Compound of example 109, 3-(2-(4-(benzo[b]thiophen-4-yl)piperazin-1-yl)ethyl)-1H-indole-5-carbonitrile]
IC50 [1]: 243 nM
IC50 [2, 4]: 200 nM

CC(=O)n1cc(CCCCN2CCN(c3cccc4sccc34)CC2)c2cc(C#N)ccc21 [Compound of example 110, 1-acetyl-3-(4-(4-(benzo[b]thiophen-4-yl)piperazin-1-yl)butyl)-1H-indole-5-carbonitrile]
IC50 [1]: 57.6 nM
IC50 [2, 4]: 1760 nM
EC50 [3]: 84 nM

O=C1CCc2cc(CCCCN3CCN(c4cccc5sccc45)CC3)ccc2N1 [Compound of example 111, 6-(4-(4-(benzo[b]thiophen-4-yl)piperazin-1-yl)butyl)-3,4-dihydroquinolin-2(1H)-one]
IC50 [1]: 23.9 nM
IC50 [2, 4]: 400 nM
EC50 [3]: 29.5 nM

Nc1nc2cc(CCN3CCN(c4cccc5sccc45)CC3)ccc2s1 [Compound of example 116, 5-(2-(4-(benzo[b]thiophen-4-yl)piperazin-1-yl)ethyl)benzo[d]thiazol-2-amine]
IC50 [1]: 5.97 nM

Nc1nc2c(CCN3CCN(c4cccc5sccc45)CC3)cccc2s1 [Compound of example 120, 4-(2-(4-(benzo[b]thiophen-4-yl)piperazin-1-yl)ethyl)benzo[d]thiazol-2-amine]
IC50 [1]: 229 nM

c1cc(N2CCN(CCCCc3nnnn3C3CCCCC3)CC2)c2ccsc2c1 [Compound of example 138, 1-(benzo[b]thiophen-4-yl)-4-(4-(1-cyclohexyl-1H-tetrazol-5-yl)butyl)piperazine hydrochloride]
IC50 [1]: 9.4 nM

Source: patent US10174011B2, “Heterocyclic compounds, process for preparation of the same and use thereof” (SHANGHAI INSTITUTE OF MATERIA MEDICA, CHINESE ACADEMY OF …, priority 2014, dated 2019)
